Data from patent US12391991B2, “Markers to predict macrocyclic lactone drug resistance in Dirofilaria immitis, the causative agent of heartworm disease” (priority 2013, dated 2025).
“Also recorded” adds a separate entry of the source. Like-named read-outs stand apart in the source and are kept apart here. Marks after values point to notes of the source that are not given here.

Columns and labels:
[1] = test system: D. immitis microfilariae; design: species or system Dirofilaria immitis; conditions: in vivo
[2] = test system: D. immitis (LOE isolate case 5); design: species or system Dirofilaria immitis; conditions: in vivo
[3] = test system: D. immitis mf from dog Jd2009; format: cell-based, Dirofilaria immitis
[4] = test system: D. immitis microfilariae (LOE isolate case 4); conditions: in vivo
[5] = test system: D. immitis Jd2009-2 isolate; design: species or system Dirofilaria immitis; conditions: in vivo
[6] = test system: adult heartworms (D. immitis); design: species or system Dirofilaria immitis; conditions: in vivo
[7] = test system: D. immitis (LOE isolate case 2); design: species or system Dirofilaria immitis; conditions: in vivo

CC[C@H](C)[C@H]1O[C@]2(CC[C@@H]1C)C[C@@H]1C[C@@H](C/C=C(\C)[C@@H](O[C@H]3C[C@H](OC)[C@@H](O[C@H]4C[C@H](OC)[C@@H](O)[C@H](C)O4)[C@H](C)O3)[C@@H](C)/C=C/C=C3\CO[C@@H]4[C@H](O)C(C)=C[C@@H](C(=O)O1)[C@]34O)O2 [IVM, ivermectin]
Knott's test result [1]: Knott's test +ve^a | Microfilaremic status [1]: remained continually microfilaremic; also recorded: still microfilaremic | Microfilariae concentration in blood ([1]; po): ≥100^b mf/ml | mf status during weekly dosing [2]: remained positive for mf | Sensitivity of mf to drug [3]: significantly less sensitive | Knott's test [4]: again positive | Knott's tests [4]: both positive

CO[C@H]1C[C@H](O[C@@H]2/C(C)=C/C[C@@H]3C[C@@H](C[C@]4(CC[C@H](C)[C@@H](C5CCCCC5)O4)O3)OC(=O)[C@@H]3C=C(C)/C(=N/O)[C@H]4OC/C(=C\C=C\[C@@H]2C)[C@]43O)O[C@@H](C)[C@@H]1O [SEL, selamectin]
Outcome of monthly chemoprophylaxis as recommended [5]: at least one dog in groups of four to six dogs on these heartworm preventatives became infected

CCN(CC)C(=O)N1CCN(C)CC1 [diethylcarbamazine]
Blood smear [4]: no mf | Side effects of the treatment [4]: No side effects

Cl.Cl.NCCS[As](SCCN)c1ccc(Nc2nc(N)nc(N)n2)cc1 [melarsomine dihydrochloride]
D. immitis antigen test [6]: negative | Antigen test Name-result (+ve or −ve) ([6]; dihydrochloride): SNAP −ve^a; also recorded: DiroChek −ve^c; also recorded: PetChek −ve^a

milbemycin oxime [MO]
Knott's test result [1]: Knott's test +ve^a; also recorded: Knott's test +ve^c | Microfilaremic status [1]: remained continually microfilaremic | Microfilariae concentration in blood [1]: ≥100^b mf/ml | Microfilariae in blood [1]: microfilariae were still present | Heartworm antigen status [7]: heartworm antigen positive | Heartworm antigen test [2]: positive heartworm antigen test | Outcome of monthly chemoprophylaxis as recommended [5]: at least one dog in groups of four to six dogs on these heartworm preventatives became infected | Knott's test ([4]; po): positive
